System: L929 cell line
Experiment: Cytotoxicity MTS assay, L929 cell line
Assay type: cell-based
Details: for OD490 values, Mean / OD490 values, Well 1 / OD490 values, Well 2 / OD490 values, Well 3: L929 cell line, first assay; for IC50: MTS assay, 24 h exposure, ordinary fibroblast, not cancer cells
Description: The positive compounds (IC50 < 100 μM) obtained from the primary Eg5 motor protein ATPase assay were tested for antiproliferative activity in vitro against Caco-2 cell line, Hela cell line, L929 cell line and T24 cell line by performing MTS assay. Cells were introduced into 96-well plates at a density of 1000 cells per well. After 24 h incubation, the cells were exposed with compounds at final concentrations ranging from 0.5 to 100 µM for 24 h. DMSO was used at a final concentration of 0.025% as blank control, monastrol was used as the positive control. Then 20 µL (CellTiter 96® AQueous One Solution Promega, Madison, WI, USA) reagent was added in each well. After 2 h at 37 °C in a 80% humidified, 5% CO2 atmosphere, the absorbance at 490 nm was recorded using a microplate reader (BIO-RAD iMark^TM). The results were obtained in three independent duplicate experiments. The primary data were shown in Supplementary Materials Tables S4–S7. The IC50 values for these compounds were calculated from a non-linear regression graph plotted between the percentage of cell viability and concentration with SPSS17.0 software.

SMILES | OD490 values, Mean (0.5μM) | OD490 values, Well 1 (0.5μM) | OD490 values, Well 2 (0.5μM) | OD490 values, Well 3 (0.5μM) | OD490 values, Mean (1μM) | OD490 values, Well 1 (1μM) | OD490 values, Well 2 (1μM) | OD490 values, Well 3 (1μM) | OD490 values, Mean (10μM) | OD490 values, Well 1 (10μM) | OD490 values, Well 2 (10μM) | OD490 values, Well 3 (10μM) | OD490 values, Mean (25μM) | OD490 values, Well 1 (25μM) | OD490 values, Well 2 (25μM) | OD490 values, Well 3 (25μM) | OD490 values, Mean (50μM) | OD490 values, Well 1 (50μM) | OD490 values, Well 2 (50μM) | OD490 values, Well 3 (50μM) | also measured
CCOC(=O)c1c(C2NC(=O)NC(C)=C2C(=O)Nc2ccccc2C)[nH]c(C(=O)OC)c1C (centres unmarked) [D2] | 1.3610 | 1.3640 | 1.3358 | 1.3832 | 1.4199 | 1.4170 | 1.4018 | 1.4410 | 1.4901 | 1.4578 | 1.4940 | 1.5185 | 1.5070 | 1.5039 | 1.5321 | 1.4850 | 1.4864 | 1.5650 | 1.4275 | 1.4667 | OD490 values, Mean (100μM): 1.2316; OD490 values, Well 1 (100μM): 1.2364; OD490 values, Well 2 (100μM): 1.1967; OD490 values, Well 3 (100μM): 1.2618; IC50: > 150 µM
CCOC(=O)c1[nH]c(C2NC(=O)NC(C)=C2C(=O)Nc2ccccc2OC)c(C(=O)OC)c1C (centres unmarked) [D3] | 1.3020 | 1.4715 | 1.2756 | 1.1589 | 1.3230 | 1.4997 | 1.2316 | 1.2376 | 1.3760 | 1.4568 | 1.4534 | 1.2179 | 1.2499 | 1.2312 | 1.2473 | 1.2712 | 1.1939 | 1.2135 | 1.2454 | 1.1229 | OD490 values, Mean (100μM): 1.1051; OD490 values, Well 1 (100μM): 1.0930; OD490 values, Well 2 (100μM): 1.2053; OD490 values, Well 3 (100μM): 1.0171; IC50: > 150 µM
